Test results as given in patent US20240139188A1, “Arylamide Compounds For Treatment And Prevention Of Fungal Infections” (priority 2022, published 2024).

System: A. fumigatus
Experiment: Protein kinase inhibitor (PKI) library screen with or without BRI
Conditions: for growth, PKI (20 μM): PKI 20 μM alone; for growth, PKI (20 μM) + BRI (20 μM): PKI 20 μM together with BRI 20 μM; for activity at 20 µM: Aspergillus fumigatus, 48 h, read-out: growth, PKI (20 μM)
Procedure: A protein kinase inhibitors (PKI) library was also screened in combination with BRI. In total, 58 PKI were analyzed. Briefly, 100 μL of liquid MM containing 2.5×10^3 conidia/mL of the A. fumigatus wild-type strain plus 10% alamar blue was inoculated with increasing concentration of PKI (5-80 μM) in the presence (or not) of BRI (20μM) and incubated 48 hours at 37° C. without shaking. […] Plates were incubated for 48 hours at 37° C. without shaking. All experiments containing alamar blue were, after 48 hours incubation, read spectrophotometically by fluorescence and analyzed as previously described. Experiments were repeated at least three times.
To assess the mechanism of action of BRI, a collection of 58 protein kinase inhibitors (PKI, at a concentration of 20 μM; Table 4) was screened for A. fumigatus growth and corresponding metabolic activity alone or together with 20 μM BRI (Table 4).

Compound	growth, PKI (20 μM)	growth, PKI (20 μM) + BRI (20 μM)	activity at 20 µM [%]
SR + 3677	++ (++: growth ≥80% compared to no treatment)	++ (++: growth ≥80% compared to no treatment)	–
Cc1nc(Nc2n[nH]c3c2CN(C(=O)N[C@H](CN(C)C)c2ccccc2)C3(C)C)c2sccc2n1 [PF + 3758309]	++ (++: growth ≥80% compared to no treatment)	++ (++: growth ≥80% compared to no treatment)	–
Cn1cc(C2=C(c3cn(C4CCN(Cc5ccccn5)CC4)c4ccccc34)C(=O)NC2=O)c2ccccc21 [enzastaurin]	–	++ (++: growth ≥80% compared to no treatment)	> 80
C[C@@]1(c2ncncc2F)NC(=O)c2cc(-c3cn[nH]c3)ccc21 [LY3177833]	++ (++: growth ≥80% compared to no treatment)	++ (++: growth ≥80% compared to no treatment)	–
MK + 8353	++ (++: growth ≥80% compared to no treatment)	++ (++: growth ≥80% compared to no treatment)	–
Cc1cnc(-c2cnc(NCCNc3ccc(C#N)cn3)nc2-c2ccc(Cl)cc2Cl)[nH]1 [CHIR + 99021]	++ (++: growth ≥80% compared to no treatment)	++ (++: growth ≥80% compared to no treatment)	–
O=C(O)c1ccc2c(c1)nc(Nc1cccc(Cl)c1)c1cnccc12 [CX + 4945]	++ (++: growth ≥80% compared to no treatment)	++ (++: growth ≥80% compared to no treatment)	–
Nc1ncnc2c1c(I)cn2[C@@H]1O[C@H](CO)[C@@H](O)[C@H]1O [5 + iodo tubercidin]	+ (+: growth ≤60% compared to no treatment)	++ (++: growth ≥80% compared to no treatment)	–
Cn1cc(C2=C(c3ccc(Cl)cc3Cl)C(=O)NC2=O)c2ccccc21 [SB 216763]	–	++ (++: growth ≥80% compared to no treatment)	> 80
CNc1ncc2cc(-c3ccc(-c4cccc(C)n4)cc3Cl)c(=O)n(C[C@H]3OC[C@H](N)CO3)c2n1 [G5555]	–	++ (++: growth ≥80% compared to no treatment)	> 80
Cn1cnc2c(F)c(Nc3ccc(Br)cc3Cl)c(C(=O)NOCCO)cc21 [selumetinib]	–	++ (++: growth ≥80% compared to no treatment)	> 80
Clc1ccc(C2(c3ccc(-c4cn[nH]c4)cc3)CCNCC2)cc1 [AT7867]	++ (++: growth ≥80% compared to no treatment)	++ (++: growth ≥80% compared to no treatment)	–
O=C(NCCCNc1nc(Nc2cccc(NC(=O)N3CCCC3)c2)ncc1I)c1cccs1 [BX + 795]	++ (++: growth ≥80% compared to no treatment)	++ (++: growth ≥80% compared to no treatment)	–
O=C1NC(=O)C(c2cnc3ccccn23)=C1c1cn2c3c(cc(F)cc13)CN(C(=O)N1CCCCC1)CC2 [LY2090314]	–	++ (++: growth ≥80% compared to no treatment)	> 80
NC(=O)c1ccc(-c2nc(-c3ccc4c(c3)OCCO4)c(-c3ccccn3)[nH]2)cc1 [D4476]	++ (++: growth ≥80% compared to no treatment)	++ (++: growth ≥80% compared to no treatment)	–
CCn1c(=O)c(-c2ccc(-c3cncs3)cc2Cl)cc2cnc(Nc3ccc(N4CCN(C)CC4)cc3)nc21 [FRAX597]	++ (++: growth ≥80% compared to no treatment)	++ (++: growth ≥80% compared to no treatment)	–
O=C1NCCc2[nH]c(-c3ccncc3)cc21 [PHA + 767491]	++ (++: growth ≥80% compared to no treatment)	++ (++: growth ≥80% compared to no treatment)	–
NS(=O)(=O)c1ccc(N/N=C2\C(=O)Nc3ccc(C(=O)NCc4ccncc4)cc32)cc1 [GW300657X]	++ (++: growth ≥80% compared to no treatment)	++ (++: growth ≥80% compared to no treatment)	–
CC1(N)CCN(c2cccnc2NC(=O)c2nc(-c3ncccc3C(F)(F)F)cnc2N)CC1 [darovasertib]	–	++ (++: growth ≥80% compared to no treatment)	> 80
CCc1nc(-c2cccc(C)c2)c(-c2ccnc(NC(=O)c3ccccc3)c2)s1 [TAK + 715]	++ (++: growth ≥80% compared to no treatment)	++ (++: growth ≥80% compared to no treatment)	–
CCN1C(=O)CNc2ncc(-c3ccc(-c4nc[nH]n4)nc3C)nc21 [CC + 115]	++ (++: growth ≥80% compared to no treatment)	++ (++: growth ≥80% compared to no treatment)	–
Nc1ccc(-c2ccc3ncc4ccc(=O)n(-c5cccc(C(F)(F)F)c5)c4c3c2)cn1 [Torin 2]	++ (++: growth ≥80% compared to no treatment)	++ (++: growth ≥80% compared to no treatment)	–
O=C1Nc2ccc(I)cc2C1=Cc1cc(Br)c(O)c(Br)c1 [GW305074X]	++ (++: growth ≥80% compared to no treatment)	++ (++: growth ≥80% compared to no treatment)	–
